Experiments:
Assay in all cases: Binding assay
Conditions in all cases: smilagenin 1 μM
[1] = target: 5-Hydroxytryptamine, 5-HT3 (Homo sapiens, UniProt P46098)
Protocol: (§1) The receptor binding was investigated using the following method: Sarsasapogenin was incubated with tissue or cell homogenate that expressed the receptor of interest and a known concentration a radiolabelled compound with affinity for the receptor of interest. After the incubation period the non-bound radiolabelled compound was removed and the amount of specific binding was quantified. The amount of specific binding in the presence and absence of sarsasapogenin were compared and the percent inhibition of the binding of the radiolabelled compound by sarsasapogenin was calculated. The source of the receptor, the incubation conditions, the radiolabelled compound used varied depending on each specific assay.
(§2) Using the same methods as described above, the binding of smilagenin (1 μM) to the receptors listed in Table 2 below, and the effect of smilagenin on the activity of the enzymes listed in Table 2 below, were investigated.

[2] = target: Adrenergic α1B (Rattus norvegicus, UniProt P15823)
Protocol: as §1, §2

[3] = target: Aldosterone (Rattus norvegicus, UniProt P22199)
Protocol: as §1, §2

[4] = target: Angiotensin AT2 (Homo sapiens, UniProt P50052)
Protocol: as §1, §2

[5] = target: Calcitonin Gene-Related Peptide CGRP1 (Homo sapiens, UniProt O60894+Q16602)
Protocol: as §1, §2

[6] = target: Calcium Channel N-Type (Rattus norvegicus, UniProt Q02294)
Protocol: as §1, §2

[7] = target: Cholecystokinin CCK2 (CCKB) (Homo sapiens, UniProt P32239)
Protocol: as §1, §2

[8] = test system: Colchicine
Protocol: as §1, §2

[9] = target: Corticotropin Releasing Factor (CRF1) (Homo sapiens, UniProt P34998)
Protocol: as §1, §2

[10] = target: T1, Dopamine D1 (Homo sapiens, UniProt P21728)
T1 construct: host or cells: tissue or cell homogenate, not specified
Protocol: as §1, §2

[11] = target: Dopamine D4.2 (Homo sapiens, UniProt P21917, DEL265-296)
Protocol: as §1, §2

[12] = target: Endothelin ETA (Homo sapiens, UniProt P25101)
Protocol: as §1, §2

[13] = target: Endothelin ETB (Homo sapiens, UniProt P24530)
Protocol: as §1, §2

[14] = target: T2, G Protein-Coupled Receptor GPR8 (Homo sapiens, UniProt P48146)
T2 construct: host or cells: tissue or cell homogenate (not specified)
Protocol: as §1, §2

[15] = target: T3, GABAB1A (Homo sapiens, UniProt Q9UBS5)
T3 construct: host or cells: tissue or cell homogenate (not specified)
Protocol: as §1, §2

[16] = target: T4, Glutamate, NMDA, Glycine (Rattus norvegicus, UniProt P35439)
T4 construct: host or cells: tissue or cell homogenate (not specified)
Protocol: as §1, §2

[17] = target: T5, Histamine H2 (Homo sapiens, UniProt P25021)
T5 construct: host or cells: tissue or cell homogenate (not specified)
Protocol: as §1, §2

[18] = target: Histamine H4 (Homo sapiens, UniProt Q9H3N8)
Protocol: as §1, §2

[19] = target: Interleukin IL-2 (Mus musculus, UniProt P01590)
Protocol: as §1, §2

[20] = target: Leptin (Mus musculus, UniProt P48356)
Protocol: as §1, §2

[21] = target: Leukotriene, Cysteinyl CysLT2 (Homo sapiens, UniProt Q9NS75)
Protocol: as §1, §2

[22] = target: Melanocortin MC1 (Homo sapiens, UniProt Q01726)
Protocol: as §1, §2

[23] = target: Melanocortin MC3 (Homo sapiens, UniProt P41968)
Protocol: as §1, §2

[24] = target: T6, Muscarinic M2 (Homo sapiens, UniProt P08172)
T6 construct: host or cells: tissue or cell homogenate, not specified
Protocol: as §1, §2

[25] = target: T7, Muscarinic M5 (Homo sapiens, UniProt P08912)
T7 construct: host or cells: tissue or cell homogenate, not specified
Protocol: as §1, §2

[26] = target: N-Formyl Peptide Receptor FPR1 (Homo sapiens, UniProt P21462)
Protocol: as §1, §2

[27] = target: Opiate δ (OP1, DOP) (Homo sapiens, UniProt P41143)
Protocol: as §1, §2

[28] = target: Platelet Activating Factor (PAF) (Homo sapiens, UniProt P25105)
Protocol: as §1, §2

[29] = target: Potassium Channel HERG (Homo sapiens, UniProt Q12809)
Protocol: as §1, §2

[30] = target: Ryanodine RyR3 (Rattus norvegicus, UniProt A0ABK0LPH6)
Protocol: as §1, §2

[31] = target: Somatostatin sst2 (Homo sapiens, UniProt P30874)
Protocol: as §1, §2

[32] = target: Somatostatin sst4 (Homo sapiens, UniProt P31391)
Protocol: as §1, §2

[33] = target: Tachykinin NK3 (Homo sapiens, UniProt P29371)
Protocol: as §1, §2

[34] = target: T8, Vasopressin V1B (Homo sapiens, UniProt P47901)
T8 construct: host or cells: tissue or cell homogenate, not specified
Protocol: as §1, §2

[35] = test system: GABAA Chloride Channel, TBOB; set-up: species or system Rat
Protocol: as §1, §2

[36] = test system: GABAA Muscimol, Central; set-up: species or system Rat
Protocol: as §1, §2

T8 sequence (P47901 whole entry): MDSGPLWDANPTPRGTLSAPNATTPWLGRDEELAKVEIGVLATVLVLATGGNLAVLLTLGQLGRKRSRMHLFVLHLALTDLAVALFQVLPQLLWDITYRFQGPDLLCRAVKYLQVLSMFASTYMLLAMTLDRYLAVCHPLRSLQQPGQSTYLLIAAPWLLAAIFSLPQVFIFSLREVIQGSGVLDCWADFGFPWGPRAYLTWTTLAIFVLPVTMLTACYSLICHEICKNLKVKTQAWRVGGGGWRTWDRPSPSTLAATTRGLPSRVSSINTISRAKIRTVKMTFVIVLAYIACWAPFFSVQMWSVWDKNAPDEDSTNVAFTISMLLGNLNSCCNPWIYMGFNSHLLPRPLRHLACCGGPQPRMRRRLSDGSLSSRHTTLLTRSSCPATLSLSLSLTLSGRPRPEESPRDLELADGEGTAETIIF
Tachykinin NK3, sequence (P29371 whole entry): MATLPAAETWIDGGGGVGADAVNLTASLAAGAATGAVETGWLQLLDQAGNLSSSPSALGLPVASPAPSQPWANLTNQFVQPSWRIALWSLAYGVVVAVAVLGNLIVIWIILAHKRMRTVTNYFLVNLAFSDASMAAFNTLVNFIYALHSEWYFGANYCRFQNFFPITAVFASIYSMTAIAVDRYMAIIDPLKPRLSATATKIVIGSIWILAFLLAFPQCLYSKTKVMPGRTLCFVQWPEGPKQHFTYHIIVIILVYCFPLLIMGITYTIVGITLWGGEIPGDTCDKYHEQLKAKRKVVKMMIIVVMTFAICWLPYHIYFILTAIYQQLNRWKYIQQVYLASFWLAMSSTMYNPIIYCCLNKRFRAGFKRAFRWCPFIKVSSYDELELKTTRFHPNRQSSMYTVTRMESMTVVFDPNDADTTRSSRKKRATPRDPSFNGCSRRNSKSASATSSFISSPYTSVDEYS
Dopamine D4.2, sequence (P21917 with tags, fused parts or gaps DEL265-296): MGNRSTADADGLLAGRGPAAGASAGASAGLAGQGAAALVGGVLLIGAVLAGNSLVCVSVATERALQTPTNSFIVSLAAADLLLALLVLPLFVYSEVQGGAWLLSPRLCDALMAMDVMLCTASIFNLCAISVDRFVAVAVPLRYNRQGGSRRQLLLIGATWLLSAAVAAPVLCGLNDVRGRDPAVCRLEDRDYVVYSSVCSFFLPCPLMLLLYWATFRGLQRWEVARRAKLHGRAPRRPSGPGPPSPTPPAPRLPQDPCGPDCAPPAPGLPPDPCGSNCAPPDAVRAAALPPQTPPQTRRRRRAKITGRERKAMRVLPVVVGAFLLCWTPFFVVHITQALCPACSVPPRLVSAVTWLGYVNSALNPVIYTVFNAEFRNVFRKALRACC
Somatostatin sst4, sequence (P31391 whole entry): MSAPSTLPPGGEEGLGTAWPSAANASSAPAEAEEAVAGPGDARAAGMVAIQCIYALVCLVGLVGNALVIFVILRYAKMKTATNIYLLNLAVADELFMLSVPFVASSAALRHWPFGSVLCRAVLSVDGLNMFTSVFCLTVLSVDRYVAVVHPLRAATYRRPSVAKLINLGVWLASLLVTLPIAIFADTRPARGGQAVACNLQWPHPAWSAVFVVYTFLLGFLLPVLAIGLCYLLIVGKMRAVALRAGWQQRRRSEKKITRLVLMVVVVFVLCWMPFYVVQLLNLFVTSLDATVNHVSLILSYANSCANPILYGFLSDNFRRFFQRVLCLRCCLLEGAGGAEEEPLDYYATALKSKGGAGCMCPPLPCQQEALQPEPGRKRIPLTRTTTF
T7 sequence (P08912 whole entry): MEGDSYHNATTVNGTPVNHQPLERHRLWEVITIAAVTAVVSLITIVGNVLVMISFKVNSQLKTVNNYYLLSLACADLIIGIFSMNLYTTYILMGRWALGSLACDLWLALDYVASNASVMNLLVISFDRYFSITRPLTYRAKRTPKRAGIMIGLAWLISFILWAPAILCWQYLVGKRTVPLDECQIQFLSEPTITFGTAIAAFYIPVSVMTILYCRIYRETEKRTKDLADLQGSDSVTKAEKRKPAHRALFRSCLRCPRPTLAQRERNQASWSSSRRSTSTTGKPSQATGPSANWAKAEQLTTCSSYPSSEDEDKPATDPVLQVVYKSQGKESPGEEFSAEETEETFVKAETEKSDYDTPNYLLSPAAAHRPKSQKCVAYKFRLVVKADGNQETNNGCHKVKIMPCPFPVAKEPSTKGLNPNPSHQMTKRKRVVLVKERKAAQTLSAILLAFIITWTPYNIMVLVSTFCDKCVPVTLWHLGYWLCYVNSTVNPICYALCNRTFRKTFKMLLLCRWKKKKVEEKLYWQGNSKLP
Cholecystokinin CCK2 (CCKB), sequence (P32239 whole entry): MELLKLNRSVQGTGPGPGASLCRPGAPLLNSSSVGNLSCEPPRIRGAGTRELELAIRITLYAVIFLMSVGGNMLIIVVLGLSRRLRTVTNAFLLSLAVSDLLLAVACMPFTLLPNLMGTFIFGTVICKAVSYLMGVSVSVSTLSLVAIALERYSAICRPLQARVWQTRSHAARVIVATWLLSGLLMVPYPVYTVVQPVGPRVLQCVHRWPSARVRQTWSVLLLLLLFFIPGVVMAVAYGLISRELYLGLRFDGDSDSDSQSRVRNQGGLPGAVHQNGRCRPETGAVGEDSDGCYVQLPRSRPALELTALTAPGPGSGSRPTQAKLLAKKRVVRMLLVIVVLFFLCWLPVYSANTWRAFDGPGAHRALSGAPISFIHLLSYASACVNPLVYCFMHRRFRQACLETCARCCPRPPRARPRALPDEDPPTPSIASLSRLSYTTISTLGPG
N-Formyl Peptide Receptor FPR1, sequence (P21462 whole entry): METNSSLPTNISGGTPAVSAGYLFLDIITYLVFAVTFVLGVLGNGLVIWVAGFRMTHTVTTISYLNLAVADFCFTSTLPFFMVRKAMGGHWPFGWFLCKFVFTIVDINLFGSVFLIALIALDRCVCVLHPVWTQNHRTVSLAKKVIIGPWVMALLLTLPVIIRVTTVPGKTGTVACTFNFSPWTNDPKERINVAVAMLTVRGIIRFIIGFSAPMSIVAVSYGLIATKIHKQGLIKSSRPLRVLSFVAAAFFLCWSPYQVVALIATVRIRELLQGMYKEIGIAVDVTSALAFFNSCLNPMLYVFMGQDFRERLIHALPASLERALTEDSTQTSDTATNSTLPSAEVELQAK
T5 sequence (P25021 whole entry): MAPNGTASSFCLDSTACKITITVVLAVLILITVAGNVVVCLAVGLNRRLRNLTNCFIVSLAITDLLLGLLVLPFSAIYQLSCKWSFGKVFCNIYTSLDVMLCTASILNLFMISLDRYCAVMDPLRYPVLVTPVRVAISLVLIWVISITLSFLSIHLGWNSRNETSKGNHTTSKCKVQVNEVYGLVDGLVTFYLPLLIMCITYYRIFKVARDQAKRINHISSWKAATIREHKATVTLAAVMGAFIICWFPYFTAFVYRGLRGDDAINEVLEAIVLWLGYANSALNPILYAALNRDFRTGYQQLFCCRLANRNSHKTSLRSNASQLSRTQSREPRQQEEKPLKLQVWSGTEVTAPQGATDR
Opiate δ (OP1, DOP), sequence (P41143 whole entry): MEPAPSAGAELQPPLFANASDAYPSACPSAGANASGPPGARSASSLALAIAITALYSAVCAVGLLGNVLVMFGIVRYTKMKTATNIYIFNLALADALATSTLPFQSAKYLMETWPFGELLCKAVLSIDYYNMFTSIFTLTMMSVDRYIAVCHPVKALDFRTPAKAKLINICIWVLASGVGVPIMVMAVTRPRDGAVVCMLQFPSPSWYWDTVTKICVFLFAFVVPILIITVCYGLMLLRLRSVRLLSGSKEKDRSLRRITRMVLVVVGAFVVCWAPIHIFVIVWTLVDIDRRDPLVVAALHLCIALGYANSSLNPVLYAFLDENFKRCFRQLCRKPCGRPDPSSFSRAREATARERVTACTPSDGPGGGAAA
Leukotriene, Cysteinyl CysLT2, sequence (Q9NS75 whole entry): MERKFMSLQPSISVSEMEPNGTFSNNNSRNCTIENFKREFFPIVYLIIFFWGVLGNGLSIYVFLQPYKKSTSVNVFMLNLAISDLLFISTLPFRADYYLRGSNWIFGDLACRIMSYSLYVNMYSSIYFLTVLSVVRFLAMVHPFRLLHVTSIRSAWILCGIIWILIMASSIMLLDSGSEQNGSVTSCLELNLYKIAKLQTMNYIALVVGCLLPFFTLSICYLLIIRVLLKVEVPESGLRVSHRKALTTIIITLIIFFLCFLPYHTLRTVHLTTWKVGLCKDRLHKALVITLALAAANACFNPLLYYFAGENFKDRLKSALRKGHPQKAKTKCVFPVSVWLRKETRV
Corticotropin Releasing Factor (CRF1), sequence (P34998 24-415): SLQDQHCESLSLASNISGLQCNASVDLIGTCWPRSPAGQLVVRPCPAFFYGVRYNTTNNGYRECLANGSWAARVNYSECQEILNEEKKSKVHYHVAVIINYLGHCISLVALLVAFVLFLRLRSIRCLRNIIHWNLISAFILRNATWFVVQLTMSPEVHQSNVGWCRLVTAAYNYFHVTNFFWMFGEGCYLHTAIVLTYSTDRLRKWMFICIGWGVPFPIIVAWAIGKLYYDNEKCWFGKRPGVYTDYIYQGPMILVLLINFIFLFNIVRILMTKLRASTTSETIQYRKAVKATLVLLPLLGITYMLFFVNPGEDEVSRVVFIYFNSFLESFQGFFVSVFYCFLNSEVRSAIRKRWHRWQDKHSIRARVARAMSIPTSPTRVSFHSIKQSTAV
Endothelin ETB, sequence (P24530 27-442): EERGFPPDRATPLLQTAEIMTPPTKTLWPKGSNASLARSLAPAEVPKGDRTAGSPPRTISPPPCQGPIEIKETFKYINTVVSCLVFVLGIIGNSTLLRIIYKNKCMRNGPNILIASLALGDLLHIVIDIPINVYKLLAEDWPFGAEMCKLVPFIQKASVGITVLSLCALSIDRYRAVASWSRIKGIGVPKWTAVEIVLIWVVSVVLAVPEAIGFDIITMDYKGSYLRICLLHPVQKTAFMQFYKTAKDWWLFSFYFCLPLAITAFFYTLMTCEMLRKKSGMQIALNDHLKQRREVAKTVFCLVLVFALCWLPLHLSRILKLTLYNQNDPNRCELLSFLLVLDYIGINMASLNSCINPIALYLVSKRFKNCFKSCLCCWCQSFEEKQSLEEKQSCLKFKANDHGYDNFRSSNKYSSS

C[C@@H]1CC[C@@]2(OC1)O[C@H]1C[C@H]3[C@@H]4CC[C@@H]5C[C@@H](O)CC[C@]5(C)[C@H]4CC[C@]3(C)[C@H]1[C@@H]2C [Smilagenin, smilagenin]
Effect (%) [1]: NS (NS = No significant response. Significance was taken as ≧30% stimulation or inhibition)
Effect (%) [2]: NS (NS = No significant response. Significance was taken as ≧30% stimulation or inhibition)
Effect (%) [3]: NS (NS = No significant response. Significance was taken as ≧30% stimulation or inhibition)
Effect (%) [4]: NS (NS = No significant response. Significance was taken as ≧30% stimulation or inhibition)
Effect (%) [5]: NS (NS = No significant response. Significance was taken as ≧30% stimulation or inhibition)
Effect (%) [6]: NS (NS = No significant response. Significance was taken as ≧30% stimulation or inhibition)
Effect (%) [7]: NS (NS = No significant response. Significance was taken as ≧30% stimulation or inhibition)
Effect (%) [8]: NS (NS = No significant response. Significance was taken as ≧30% stimulation or inhibition)
Effect (%) [9]: NS (NS = No significant response. Significance was taken as ≧30% stimulation or inhibition)
Effect (%) [10]: NS (NS = No significant response. Significance was taken as ≧30% stimulation or inhibition)
Effect (%) [11]: NS (NS = No significant response. Significance was taken as ≧30% stimulation or inhibition)
Effect (%) [12]: NS (NS = No significant response. Significance was taken as ≧30% stimulation or inhibition)
Effect (%) [13]: NS (NS = No significant response. Significance was taken as ≧30% stimulation or inhibition)
Effect (%) [14]: NS (NS = No significant response. Significance was taken as ≧30% stimulation or inhibition)
Effect (%) [15]: NS (NS = No significant response. Significance was taken as ≧30% stimulation or inhibition)
Effect (%) [16]: NS (NS = No significant response. Significance was taken as ≧30% stimulation or inhibition)
Effect (%) [17]: NS (NS = No significant response. Significance was taken as ≧30% stimulation or inhibition)
Effect (%) [18]: NS (NS = No significant response. Significance was taken as ≧30% stimulation or inhibition)
Effect (%) [19]: NS (NS = No significant response. Significance was taken as ≧30% stimulation or inhibition)
Effect (%) [20]: NS (NS = No significant response. Significance was taken as ≧30% stimulation or inhibition)
Effect (%) [21]: NS (NS = No significant response. Significance was taken as ≧30% stimulation or inhibition)
Effect (%) [22]: NS (NS = No significant response. Significance was taken as ≧30% stimulation or inhibition)
Effect (%) [23]: NS (NS = No significant response. Significance was taken as ≧30% stimulation or inhibition)
Effect (%) [24]: NS (NS = No significant response. Significance was taken as ≧30% stimulation or inhibition)
Effect (%) [25]: NS (NS = No significant response. Significance was taken as ≧30% stimulation or inhibition)
Effect (%) [26]: NS (NS = No significant response. Significance was taken as ≧30% stimulation or inhibition)
Effect (%) [27]: NS (NS = No significant response. Significance was taken as ≧30% stimulation or inhibition)
Effect (%) [28]: NS (NS = No significant response. Significance was taken as ≧30% stimulation or inhibition)
Effect (%) [29]: NS (NS = No significant response. Significance was taken as ≧30% stimulation or inhibition)
Effect (%) [30]: NS (NS = No significant response. Significance was taken as ≧30% stimulation or inhibition)
Effect (%) [31]: NS (NS = No significant response. Significance was taken as ≧30% stimulation or inhibition)
Effect (%) [32]: NS (NS = No significant response. Significance was taken as ≧30% stimulation or inhibition)
Effect (%) [33]: NS (NS = No significant response. Significance was taken as ≧30% stimulation or inhibition)
Effect (%) [34]: NS (NS = No significant response. Significance was taken as ≧30% stimulation or inhibition)
Effect (%) [35]: NS (NS = No significant response. Significance was taken as ≧30% stimulation or inhibition)
Effect (%) [36]: NS (NS = No significant response. Significance was taken as ≧30% stimulation or inhibition)
